We go through 26 molecules from ChEMBL document CHEMBL1201862, “PubChem BioAssay data set” (2004).

Some test systems named below: DMS-114; DMS-273; DLD-1; M19-MEL; RXF 631; LXFL 529; HOP-18; SNB-78; XF498.
Test in all cases: inhibition of tumour cell growth, NCI panel, 48 h

Molecules are shown by their SMILES.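 Step 1: Grow cells in 96-well plates. Step 2: Expose to compound for 48 hours at 5 concentrations. Step 3: Interpolate endpoints linearly; if unreached, use highest concentration. Abbreviation: GI50, concentration required for 50% inhibition of growth.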 Active and inactive are the calls of the source. No stated cut-off is given here; in the data, active = GI50 up to about 1.1 µM and inactive = higher.

Regarding `C=C(C)C1CC=C(C(=O)O)CC1` (centres undefined), the GI50 was 1360 µM (inactive) in the experiment with DMS-114; 1340 µM (inactive) in the experiment with DMS-273; 1490 µM (inactive) in the experiment on DLD-1; 1160 µM (inactive) in the experiment on M19-MEL; 839 µM (inactive) with RXF 631; 1490 µM (inactive) in the experiment on LXFL 529.

Turning to `O=C(Nc1ccccc1)n1cc(-c2ccccn2)c(N2CCOCC2)n1`, the GI50 in the experiment with DMS-114 is 5.36 µM (inactive); in the experiment on DMS-273, 3.44 µM (inactive); in the experiment on DLD-1 it was 6.61 µM (inactive); in the experiment with M19-MEL it was 6.61 µM (inactive); in the experiment with LXFL 529 it was 7.89 µM (inactive); with HOP-18 it was > 100 µM (inactive). The values for the GI50 in the experiment on SNB-78 and with XF498 were 24.9 µM (inactive) and 9.23 µM (inactive), respectively.

As for `N#CC(c1ccc(Cl)cc1)c1cccc(Cl)n1` (centres undefined), the GI50 in the experiment on DLD-1 was 83 µM (inactive); in the experiment with M19-MEL it was 60.1 µM (inactive); in the experiment with LXFL 529 it was 30.3 µM (inactive); with SNB-78 it was 67.3 µM (inactive); with XF498, 24.8 µM (inactive).

For the molecule `CC1=CC(=O)NP(=O)(Oc2ccc(C)cc2)N1` (centres undefined), the GI50 with DMS-114, in the experiment with DMS-273, with DLD-1, in the experiment on M19-MEL, with RXF 631 and with LXFL 529 was > 100 µM (inactive) throughout. The GI50 in the experiment on HOP-18, in the experiment with SNB-78 and in the experiment on XF498 was > 100 µM (inactive) in each case.

Turning to `CCCOCN1COCN/C1=N\C#N`, the GI50 with DMS-114 is 22 µM (inactive); with DMS-273, 18 µM (inactive); with DLD-1, 70.1 µM (inactive); with M19-MEL, 30.9 µM (inactive); with LXFL 529 it was > 100 µM (inactive); in the experiment with HOP-18, 32.8 µM (inactive). The GI50 in the experiment with SNB-78 and in the experiment on XF498 was > 100 µM (inactive) in each case.

Take `O=C(/C=C/c1ccc(OCC(=O)N2CCN(c3ccccc3)CC2)cc1)c1ccc(Cl)cc1`: the GI50 is > 65.3 µM (inactive) with DMS-114; 55 µM (inactive) in the experiment with DMS-273; > 100 µM (inactive) in the experiment with DLD-1; > 100 µM (inactive) with M19-MEL; 34.8 µM (inactive) in the experiment with RXF 631; > 92 µM (inactive) in the experiment on LXFL 529. Moreover, the GI50 with HOP-18 was > 100 µM (inactive); in the experiment with SNB-78 it was 18.6 µM (inactive).

Take `NC(=S)N/N=C/c1cn(CCCl)c2ccccc12`: the GI50 in the experiment with DMS-114 was 21.9 µM (inactive); in the experiment on DLD-1, 71.9 µM (inactive); in the experiment with M19-MEL, 52.1 µM (inactive); in the experiment with LXFL 529, 39.7 µM (inactive); in the experiment on HOP-18 it was 61.9 µM (inactive); with SNB-78, > 100 µM (inactive).

As to `O=C1C2=C(CCCCC2)C2CCCCC12O` (centres undefined), the GI50 in the experiment with DMS-114, in the experiment with DMS-273, in the experiment on DLD-1, in the experiment with M19-MEL, in the experiment on LXFL 529 and with SNB-78 was > 100 µM (inactive) each time. Further, the GI50 in the experiment with XF498 is > 100 µM (inactive).

On to `Cc1ccc(Sc2ccc(C)cc2[N+](=O)[O-])c([N+](=O)[O-])c1`, for which the GI50 with DMS-114, in the experiment on DMS-273, in the experiment with M19-MEL, in the experiment with LXFL 529, in the experiment on HOP-18 and in the experiment with SNB-78 was > 100 µM (inactive) each time. The GI50 in the experiment on XF498 is > 100 µM (inactive).

For the molecule `COc1cc(NS(C)(=O)=O)ccc1Nc1c2ccccc2nc2c1[nH]c1ccc(NC3OC(CO)C(O)C(O)C3O)cc12` (centres undefined), the GI50 in the experiment on DMS-114 is < 0.01 µM (active); in the experiment with DMS-273, < 0.01 µM (active); in the experiment on DLD-1, 0.293 µM (active); with M19-MEL, 0.165 µM (active); with LXFL 529 it was 0.9 µM (active); in the experiment on HOP-18, 0.048 µM (active). Besides, the GI50 in the experiment with SNB-78 was 1.27 µM (inactive).

For the molecule `CN1C/C(=C\c2ccccc2)C2=NN(C(N)=S)[C@H](c3ccccc3)[C@@H]2C1`, the GI50 in the experiment on DMS-273 was 47.4 µM (inactive); in the experiment with DLD-1, 53.7 µM (inactive); with M19-MEL it was 55.2 µM (inactive); with LXFL 529 it was 29.4 µM (inactive); with SNB-78 it was 28.1 µM (inactive); with XF498, > 100 µM (inactive).

With `CCOC(=O)[C-]([N+]#N)[Si](C)(C)C`, the GI50 with DMS-114, in the experiment on DMS-273, in the experiment with DLD-1, in the experiment on M19-MEL, in the experiment with HOP-18 and with SNB-78 was > 100 µM (inactive) in each case. Further, in the experiment with XF498, the GI50 was 56.9 µM (inactive).

With `Cc1cccc(C)c1NC(=O)CCC(=O)CC(=O)C(C)C`, the GI50 in the experiment on DMS-114, in the experiment with DMS-273, in the experiment on DLD-1, in the experiment on M19-MEL, in the experiment on LXFL 529 and in the experiment with HOP-18 was > 100 µM (inactive) in each case. For the same molecule, the GI50 in the experiment on SNB-78 and in the experiment on XF498 was > 100 µM (inactive) throughout.

For `c1ccc(COCC2OC3c4ccccc4COC3C2OCc2ccccc2)cc1` (centres undefined), the GI50 was 49.5 µM (inactive) with DMS-114; 83.6 µM (inactive) in the experiment on DMS-273; > 100 µM (inactive) in the experiment with DLD-1; > 100 µM (inactive) in the experiment on M19-MEL; > 100 µM (inactive) with RXF 631; > 100 µM (inactive) in the experiment with HOP-18. Also, the GI50 in the experiment on SNB-78 was > 100 µM (inactive).

Take `Cc1cc(=O)n(-c2ccccc2)c(=O)o1`: the GI50 in the experiment with DMS-114, with DMS-273, in the experiment with DLD-1, with M19-MEL, with LXFL 529 and in the experiment with HOP-18 was > 100 µM (inactive) throughout. Also, the GI50 in the experiment with SNB-78 is > 100 µM (inactive).

As to `CC1OC(n2cc(C(F)(F)F)c(=O)[nH]c2=O)C=CC1=O` (centres undefined), the GI50 in the experiment on DLD-1 is 18.8 µM (inactive); in the experiment with M19-MEL it was 20.3 µM (inactive); with RXF 631, 12.7 µM (inactive); in the experiment with LXFL 529, 17.1 µM (inactive); in the experiment with SNB-78, 15.8 µM (inactive); in the experiment on XF498, 16.6 µM (inactive).

As to `COC(=O)C1=C(C(=O)OC)C2C(C)=CC(C)=CN2C(C#N)=C(SC)S1` (centres undefined), the GI50 was 22.6 µM (inactive) in the experiment on DMS-114; 31.8 µM (inactive) in the experiment on DMS-273; 22.6 µM (inactive) with DLD-1; 17.7 µM (inactive) in the experiment on M19-MEL; 16.9 µM (inactive) in the experiment with LXFL 529; 41.3 µM (inactive) with SNB-78.

As to `O=C(COc1ccc(Cl)cc1)N1CCN(C(=O)COc2ccc(Cl)cc2)c2ccccc21`, the GI50 in the experiment on DMS-114 was 29.5 µM (inactive); in the experiment on DMS-273, 39.2 µM (inactive); in the experiment on DLD-1, 64 µM (inactive); in the experiment on M19-MEL it was 38.1 µM (inactive); in the experiment on LXFL 529, 37.4 µM (inactive); in the experiment on HOP-18, 71.3 µM (inactive). In addition, the GI50 was 45.4 µM (inactive) in the experiment with SNB-78 and 24.5 µM (inactive) with XF498.

On to `COC(=O)C(=O)C(C(=O)C(=O)Nc1ccc(C)cc1C)c1nc2ccccc2nc1O` (centres undefined), for which the GI50 in the experiment with DLD-1 was 50.7 µM (inactive); with M19-MEL, > 100 µM (inactive); in the experiment with RXF 631, 46.7 µM (inactive); in the experiment on LXFL 529, 43.9 µM (inactive); in the experiment with HOP-18, 36 µM (inactive); in the experiment on SNB-78, 41.6 µM (inactive). In addition, the GI50 in the experiment on XF498 was 58.3 µM (inactive).

`CC(=O)OCC1OC(N2C(=O)C(=O)c3ccccc32)C(OC(C)=O)C(OC(C)=O)C1OC(C)=O` (centres undefined): the GI50 with DMS-114 was > 100 µM (inactive); in the experiment with DMS-273 it was > 100 µM (inactive); in the experiment on DLD-1 it was > 100 µM (inactive); with M19-MEL, 91.2 µM (inactive); in the experiment on RXF 631 it was > 100 µM (inactive); in the experiment with LXFL 529, > 100 µM (inactive). Further, the GI50 with HOP-18 is > 10 µM (inactive).

With `CCOC(=O)/C(C#N)=C1/C(O)=C(C(=O)OC)C(C(=O)OC)=C1C(=O)OC.c1ccncc1`, the GI50 with DMS-273, with DLD-1, in the experiment with M19-MEL and in the experiment on LXFL 529 was > 100 µM (inactive) in each case.

Take `C[N+](C)(C)CC(=O)N/N=C(\CCC(=O)NCCc1ccccc1)CC(=O)c1ccccc1`: the GI50 in the experiment on DMS-114, with DMS-273, in the experiment with DLD-1, with M19-MEL, in the experiment on LXFL 529 and in the experiment on HOP-18 was > 100 µM (inactive) each time. In addition, the GI50 in the experiment with SNB-78 and in the experiment with XF498 was > 100 µM (inactive) throughout.

Consider `CC[C@H]1[C@@H](C)C=C[C@@H](C)N1S(=O)(=O)c1ccc(C)cc1`, for which the GI50 with DMS-114 was 19.1 µM (inactive); in the experiment on DMS-273 it was > 100 µM (inactive); in the experiment with M19-MEL, > 100 µM (inactive); in the experiment on RXF 631, 16.7 µM (inactive); in the experiment with LXFL 529, 73.8 µM (inactive); with SNB-78, > 100 µM (inactive). For the same molecule, the GI50 in the experiment on XF498 was 14.1 µM (inactive).

Regarding `CCOC12OC3=C(CC1CC1=C(CCC1=O)O2)C(=O)CC3` (centres undefined), the GI50 in the experiment with DMS-114, with DMS-273, in the experiment on DLD-1, in the experiment on M19-MEL, with RXF 631 and in the experiment with LXFL 529 was > 100 µM (inactive) throughout. For the same molecule, the GI50 with HOP-18 and with SNB-78 was > 100 µM (inactive) in each case.

For the molecule `Cc1c(Cl)ccc2[s+]snc12`, the GI50 in the experiment with DMS-273 was 38.2 µM (inactive); in the experiment on DLD-1, 25.4 µM (inactive); in the experiment on M19-MEL, 33 µM (inactive); with RXF 631, 33.4 µM (inactive); in the experiment on LXFL 529, 29.6 µM (inactive); in the experiment with HOP-18 it was 29 µM (inactive). In addition, the GI50 was 31 µM (inactive) in the experiment on SNB-78 and 25.3 µM (inactive) with XF498.

Consider `O=C1C2C3C=C4c5ccccc5N(c5ccccc5)C4(C2C(=O)N1c1ccc(Cl)cc1)[C@H]1C(=O)N(c2ccc(Cl)cc2)C(=O)[C@@H]31` (some centres undefined), for which the GI50 with DMS-114 is > 100 µM (inactive); in the experiment with DMS-273 it was > 100 µM (inactive); with DLD-1 it was > 100 µM (inactive); in the experiment with M19-MEL, > 100 µM (inactive); in the experiment on RXF 631 it was 6.49 µM (inactive); in the experiment on LXFL 529, > 100 µM (inactive). The GI50 in the experiment on HOP-18, in the experiment on SNB-78 and in the experiment with XF498 was > 100 µM (inactive) each time.
